Test results published in PubChem BioAssay AID330 (DTP/NCI, 2004).
Values joined by “and” are separate entries in the source; they are usually repeats but may differ in a detail not shown here. Equal values may be shown once. Inconclusive results and toxic doses are left out.

Test system: P388 leukemia ip, CD2F1 mice, survival T/C
Test: NCI In Vivo Anticancer Drug Screen. Data for tumor model P388 Leukemia (intraperitoneal) in CD2F1 (CDF1) mice
Settings: endpoint: median survival time, higher = longer survival
Procedure, shortened: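 Mice carrying the transplanted tumor received test compound or vehicle. Survival was recorded in each group, and the value is the treated-group measurement divided by that of the vehicle-treated control group.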

[1] = dose: 60.0 mg/kg/injection, schedule: Q01DX005 (ip), vehicle: saline
[2] = dose: 120.0 mg/kg/injection, schedule: Q01DX005 (ip), vehicle: saline
[3] = dose: 240.0 mg/kg/injection, schedule: Q01DX005 (ip), vehicle: saline
[4] = dose: 100.0 mg/kg/injection, schedule: Q01DX001 (ip), vehicle: saline
[5] = dose: 200.0 mg/kg/injection, schedule: Q01DX001 (ip), vehicle: saline
[6] = dose: 400.0 mg/kg/injection, schedule: Q01DX001 (ip), vehicle: saline
[7] = dose: 50.0 mg/kg/injection, schedule: Q01DX005 (ip), vehicle: saline with Tween-80
[8] = dose: 100.0 mg/kg/injection, schedule: Q01DX005 (ip), vehicle: saline with Tween-80
[9] = dose: 200.0 mg/kg/injection, schedule: Q01DX005 (ip), vehicle: saline with Tween-80
[10] = dose: 60.0 mg/kg/injection, schedule: Q01DX005 (ip), vehicle: Klucel (hydroxypropylcellulose) (HPC)
[11] = dose: 120.0 mg/kg/injection, schedule: Q01DX005 (ip), vehicle: Klucel (hydroxypropylcellulose) (HPC)

## CCC[CH2][Sn]1([CH2]CCC)[O]OC(c2ccc(C)cc2)[O]1 (stereo not given)
dose: 0.19 mg/kg/injection, schedule: Q01DX009 (ip), vehicle: saline with Tween-80
  T/C: 102 % of control
dose: 0.38 mg/kg/injection, schedule: Q01DX009 (ip), vehicle: saline with Tween-80
  T/C: 94 % of control
dose: 0.75 mg/kg/injection, schedule: Q01DX009 (ip), vehicle: saline with Tween-80
  T/C: 116 % of control

## C=C(C)C(=O)N(C)C(C)C(=O)OC1CC(=O)N(C)c2cc(cc(OC)c2Cl)C(OC)C(C)=C/C=C/C(OC)C2(O)CC(OC(=O)N2)C(C)C2OC12C (stereo not given)
dose: 8.0 micrograms/kg/injection, schedule: Q01DX009 (ip), vehicle: saline
  T/C: 172 % of control

## CS(=O)(=O)C(c1nc2n(c1O)C(=N)N=N2)c1nc2n(c1O)C(=N)N=N2 (stereo not given)
[1]
  T/C: 99 % of control
[2]
  T/C: 100 % of control
[3]
  T/C: 105 % of control

## C/C=C1\CN(C)CCC23C(=O)CC1C1COC(O)C(=O)N(c4ccccc42)C13 (stereo not given)
dose: 1.0 mg/kg/injection, schedule: Q01DX009 (ip), vehicle: Klucel (hydroxypropylcellulose) (HPC)
  T/C: 103 % of control
dose: 2.0 mg/kg/injection, schedule: Q01DX009 (ip), vehicle: Klucel (hydroxypropylcellulose) (HPC)
  T/C: 110 % of control
dose: 4.0 mg/kg/injection, schedule: Q01DX009 (ip), vehicle: Klucel (hydroxypropylcellulose) (HPC)
  T/C: 118 % of control
dose: 5.0 mg/kg/injection, schedule: Q01DX009 (ip), vehicle: saline
  T/C: 97 % of control
dose: 8.0 mg/kg/injection, schedule: Q01DX009 (ip), vehicle: Klucel (hydroxypropylcellulose) (HPC)
  T/C: 101 % of control
dose: 10.0 mg/kg/injection, schedule: Q01DX009 (ip), vehicle: saline
  T/C: 99 % of control
dose: 16.0 mg/kg/injection, schedule: Q01DX009 (ip), vehicle: Klucel (hydroxypropylcellulose) (HPC)
  T/C: 110 % of control
dose: 20.0 mg/kg/injection, schedule: Q01DX009 (ip), vehicle: saline
  T/C: 101 % of control

## O=C1NC(=O)N2CC(CBr)OC2C1c1ccccc1 (stereo not given)
dose: 50.0 mg/kg/injection, schedule: Q01DX009 (ip), vehicle: Klucel (hydroxypropylcellulose) (HPC)
  T/C: 101 % of control
dose: 100.0 mg/kg/injection, schedule: Q01DX009 (ip), vehicle: Klucel (hydroxypropylcellulose) (HPC)
  T/C: 100 % of control
dose: 200.0 mg/kg/injection, schedule: Q01DX009 (ip), vehicle: Klucel (hydroxypropylcellulose) (HPC)
  T/C: 100 % of control

## CC1COCC(C)OC(C)COCC(C)OC(=O)COCC(=O)O1 (stereo not given)
dose: 100.0 mg/kg/injection, schedule: Q04DX003 (ip), vehicle: Klucel (hydroxypropylcellulose) (HPC)
  T/C: 104 % of control
dose: 200.0 mg/kg/injection, schedule: Q04DX003 (ip), vehicle: Klucel (hydroxypropylcellulose) (HPC)
  T/C: 110 % of control
dose: 400.0 mg/kg/injection, schedule: Q04DX003 (ip), vehicle: Klucel (hydroxypropylcellulose) (HPC)
  T/C: 103 % of control

## O=C(O)c1cscn1
[1]
  T/C: 100 % of control
[2]
  T/C: 97 % of control
[3]
  T/C: 113 % of control

## O=C1c2c(O)ccc(O)c2C(=O)c2c(NCCCCO)ccc(NCCCCO)c21
dose: 0.62 mg/kg/injection, schedule: Q01DX009 (ip), vehicle: acid diluted with saline
  T/C: 103 % of control
dose: 1.25 mg/kg/injection, schedule: Q01DX009 (ip), vehicle: acid diluted with saline
  T/C: 103 % of control
dose: 2.5 mg/kg/injection, schedule: Q01DX009 (ip), vehicle: acid diluted with saline
  T/C: 103 % of control
dose: 5.0 mg/kg/injection, schedule: Q01DX009 (ip), vehicle: acid diluted with saline
  T/C: 112 % of control
dose: 10.0 mg/kg/injection, schedule: Q01DX009 (ip), vehicle: acid diluted with saline
  T/C: 102 % of control
dose: 20.0 mg/kg/injection, schedule: Q01DX009 (ip), vehicle: acid diluted with saline
  T/C: 100 % of control
dose: 40.0 mg/kg/injection, schedule: Q01DX009 (ip), vehicle: acid diluted with saline
  T/C: 98 % of control
dose: 80.0 mg/kg/injection, schedule: Q01DX009 (ip), vehicle: acid diluted with saline
  T/C: 92 % of control
dose: 160.0 mg/kg/injection, schedule: Q01DX009 (ip), vehicle: acid diluted with saline
  T/C: 86 % of control

## S=C(Nc1ccc(Br)cc1)SCc1ccc2c(c1)OCO2
dose: 50.0 mg/kg/injection, schedule: Q01DX009 (ip), vehicle: suspension in saline
  T/C: 109 % of control
dose: 100.0 mg/kg/injection, schedule: Q01DX009 (ip), vehicle: suspension in saline
  T/C: 119 % of control
dose: 200.0 mg/kg/injection, schedule: Q01DX009 (ip), vehicle: suspension in saline
  T/C: 93 % of control

## CCC(c1ccc(OCc2ccccc2)cc1)c1cc2c(cc1OCCO)OCO2 (stereo not given)
dose: 50.0 mg/kg/injection, schedule: Q01DX005 (ip), vehicle: distilled water + Tween-80
  T/C: 87 % of control
dose: 100.0 mg/kg/injection, schedule: Q01DX005 (ip), vehicle: distilled water + Tween-80
  T/C: 87 % of control
dose: 200.0 mg/kg/injection, schedule: Q01DX005 (ip), vehicle: distilled water + Tween-80
  T/C: 89 % of control

## C1=C(c2ccccc2)N2CCCNC2(c2ccccc2)CS1 (stereo not given)
dose: 100.0 mg/kg/injection, schedule: Q04DX002 (ip), vehicle: saline with Tween-80
  T/C: 90 % of control
dose: 200.0 mg/kg/injection, schedule: Q04DX002 (ip), vehicle: saline with Tween-80
  T/C: 90 % of control
dose: 400.0 mg/kg/injection, schedule: Q04DX002 (ip), vehicle: saline with Tween-80
  T/C: 88 % of control

## CC(C)=Cn1ccccc1=O
dose: 25.0 mg/kg/injection, schedule: Q01DX001 (ip), vehicle: saline
  T/C: 104 % of control and 108 % of control
dose: 50.0 mg/kg/injection, schedule: Q01DX001 (ip), vehicle: saline
  T/C: 99 % of control and 98 % of control
[4]
  T/C: 120 % of control and 95 % of control and 98 % of control
[5]
  T/C: 94 % of control
[6]
  T/C: 108 % of control

## CSc1n[nH]c(C2CCC(=O)N2Cc2ccccc2)n1 (stereo not given)
[7]
  T/C: 103 % of control
[8]
  T/C: 101 % of control
[9]
  T/C: 100 % of control

## O=C(Nc1ncnc2nc(-c3ccccc3)[nH]c12)c1ccccc1
[10]
  T/C: 107 % of control
[11]
  T/C: 95 % of control
dose: 240.0 mg/kg/injection, schedule: Q01DX005 (ip), vehicle: Klucel (hydroxypropylcellulose) (HPC)
  T/C: 95 % of control

## Cc1cc(N)ncc1[N+](=O)[O-]
[7]
  T/C: 99 % of control
[8]
  T/C: 101 % of control
[9]
  T/C: 98 % of control

## CC(=O)OCC12C(=O)C(O)C(C)C3(CC(c4ccoc4)OC3OC(C)=O)C1CCCC21CO1 (stereo not given)
dose: 15.0 mg/kg/injection, schedule: Q01DX005 (ip), vehicle: Klucel (hydroxypropylcellulose) (HPC)
  T/C: 105 % of control
dose: 30.0 mg/kg/injection, schedule: Q01DX005 (ip), vehicle: Klucel (hydroxypropylcellulose) (HPC)
  T/C: 105 % of control
[10]
  T/C: 100 % of control

## O=[N+]([O-])c1cccc(C(O)(C(F)(F)F)C(F)(F)F)c1
dose: 25.0 mg/kg/injection, schedule: Q01DX009 (ip), vehicle: saline with Tween-80
  T/C: 95 % of control
dose: 50.0 mg/kg/injection, schedule: Q01DX009 (ip), vehicle: saline with Tween-80
  T/C: 97 % of control
dose: 100.0 mg/kg/injection, schedule: Q01DX009 (ip), vehicle: saline with Tween-80
  T/C: 106 % of control
dose: 100.0 mg/kg/injection, schedule: Q04DX002 (ip), vehicle: suspension in saline
  T/C: 112 % of control
dose: 200.0 mg/kg/injection, schedule: Q01DX009 (ip), vehicle: saline with Tween-80
  T/C: 98 % of control

## N=c1c2[nH]cnc2ncn1O
[10]
  T/C: 92 % of control
[11]
  T/C: 93 % of control

## CNc1nc(=S)nc(-c2ccccc2)s1
[7]
  T/C: 100 % of control
[8]
  T/C: 106 % of control
[9]
  T/C: 92 % of control

## COC(=O)C(=O)C1CSC2=C(CS(=O)(=O)c3ccccc32)C1=O (stereo not given)
dose: 60.0 mg/kg/injection, schedule: Q01DX005 (ip), vehicle: saline with Tween-80
  T/C: 98 % of control
dose: 120.0 mg/kg/injection, schedule: Q01DX005 (ip), vehicle: saline with Tween-80
  T/C: 104 % of control
dose: 240.0 mg/kg/injection, schedule: Q01DX005 (ip), vehicle: saline with Tween-80
  T/C: 104 % of control

## CCOP(=O)(Nc1ccccc1OC)OCC
dose: 50.0 mg/kg/injection, schedule: Q01DX009 (ip), vehicle: saline
  T/C: 104 % of control
[4]
  T/C: 110 % of control
dose: 100.0 mg/kg/injection, schedule: Q01DX009 (ip), vehicle: saline
  T/C: 107 % of control
[5]
  T/C: 105 % of control
dose: 200.0 mg/kg/injection, schedule: Q01DX009 (ip), vehicle: saline
  T/C: 100 % of control
[6]
  T/C: 102 % of control

## COc1cccc2c(Nc3ccc4c(c3)OCO4)c(C(=O)O)cnc12
dose: 60.0 mg/kg/injection, schedule: Q01DX005 (ip), vehicle: Klucel + Tween-80
  T/C: 94 % of control
dose: 120.0 mg/kg/injection, schedule: Q01DX005 (ip), vehicle: Klucel + Tween-80
  T/C: 103 % of control
